Laboratory results from publication PMC12750888, “Design, synthesis, and anti-Toxoplasma gondii evaluation of β-carboline derivatives” (Parasites & Vectors, 2025).

Assays:
[1] = tested on: T. gondii tachyzoites; assay: Ultrastructural analysis by transmission electron microscopy; type: cell-based, Toxoplasma gondii; details: NBZ023 2.85 μM, NBZ035 1.6 μM
Procedure: The effects of the incubation with the drugs on the ultrastructure of T. gondii tachyzoites were observed via transmission electron microscopy (TEM). For TEM analysis, Vero cells were grown to confluence in T25 flasks and infected with 2 × 10^6 T. gondii tachyzoites for 8 h. After NBZ023 (2.85 μM) or NBZ035 (1.6 μM) was added, the cells were cultured for 8 or 24 h, then digested with TrypLE Express for 2 min, and washed twice with PBS. The detailed experimental procedures were described in a previous study.

[2] = tested on: T. gondii RH strain tachyzoites; assay: In vitro anti-invasion assay (qPCR; RH-GFP fluorescence microscopy); type: cell-based, Toxoplasma gondii; details: for IC50: Toxoplasma gondii, RH strain, Vero cells, 2 h after infection, qPCR, read-out: IC50, inhibition of T. gondii invasion; for number of parasitophorous vacuoles (PVs) invaded by RH-GFP tachyzoites: fluorescence microscopy, compared with control and positive control groups
Procedure: Vero cells were seeded onto 6-well plates and cultured with DMEM supplemented with 10% FBS to obtain cell monolayers. The medium was replaced with fresh DMEM (1% FBS) containing NBZ023 or NBZ035 (0.24–30 μM), pyrimethamine (0.4 μM) or no drugs (as a control), and tachyzoites (2 × 10^6 per well) were then inoculated into the confluent Vero cell monolayers. At 2 h after infection, the cell monolayers were washed twice with PBS to remove extracellular tachyzoites and then total genomic DNA from the cell samples was isolated with the DNAiso reagent (Takara). The anti-invasion capabilities of NBZ023 and NBZ035 were determined by qPCR. The T. gondii RH strain with green fluorescence was seeded as described above. After infection, the cells were incubated for 36 h to fully observe the infection status of the parasites via fluorescence microscopy.

[3] = tested on: PRU strain bradyzoite cysts; assay: In vitro PRU bradyzoite cyst formation (DBA staining); type: cell-based, Toxoplasma gondii; details: PRU cysts in Vero cells, 48 h; NBZ023 2.85 or 30 μM, NBZ035 1.6 or 30 μM
Procedure: The conditions for inducing the formation of cysts in vitro by the type II PRU strain were described in a previously published study. After the induction of cyst formation, the alkaline medium was removed and replaced with a medium containing NBZ023, NBZ035, or 0.1% DMSO as the control. After 48 h, the DMEM was removed, and the PRU strain bradyzoite cysts were stained with Dolichos biflorus agglutinin (DBA) to assess the treatment effects.The stained cysts were observed using light microscopy under a 40 × objective lens, with at least 3 random fields per well counted.

[4] = tested on: Vero cells; assay: Cell viability assay (CCK-8) on Vero cells; type: cell-based, African green monkey; details: 24 h; for Cytotoxicity: CCK-8, tested up to 30 µM; for inhibition at 30 µM: Chlorocebus sabaeus, CCK-8, read-out: Inhibition rate of Vero cell at 30 μM
Procedure: (§1) African green monkey kidney (Vero) cells were cultured in Dulbecco’s modified Eagle’s medium (DMEM) supplemented with 100 U/mL penicillin, 100 μg/mL streptomycin, 1% nonessential amino acids (NEAAs), 1% GlutaMAX and 10% fetal bovine serum (FBS) at 37 °C in an atmosphere of 5% CO2. […] DMEM without a drug was used as a control. After 24 h of treatment, Cell Counting Kit-8 (CCK-8, CA1210, Solarbio) was used to determine cell viability at 450 nm via a Multiskan GO instrument.

[5] = Cell viability assay (CCK-8) on Vero cells; type: cell-based, African green monkey; details: African green monkey, CCK-8, read-out: half-maximal cytotoxic concentration (CC50) against host cells
Procedure: as §1

[6] = tested on: T. gondii Type I tachyzoites; assay: In vivo efficacy against acute T. gondii infection in mice (tissue parasite burden by qPCR); parameters: species or system BALB/c mice; details: acute RH infection, once daily for 7 days, compared with parasite control, NBZ compounds 10 mg/kg BW intraperitoneally, positive control orally
Procedure: Female BALB/c mice (18-20 g, 6-8 weeks old) were divided into 4 groups consisting of 6 mice each, and each mouse was injected intraperitoneally with 2 × 10^3 Type I tachyzoites. Four hours after inoculation, the treatments were administered once per day for 7 consecutive days. NBZ023 and NBZ035 were dissolved in isotonic saline containing 5% ethanol and 5% Cremophor EL to a concentration of 1 mg/mL for in vivo experiments. Sulfadiazine (10 mg/mL, Sigma, USA), pyrimethamine (5 mg/mL, Sigma, USA), and folinic acid (1.5 mg/mL, Sigma, USA) were suspended in isotonic saline containing 1% CMC-Na and used as positive drugs in in vivo experiments. […] After the mice were euthanized on the eighth day, the brains, livers, and spleens were collected. DNA was isolated with a DNA purification kit ([…], Omega Bio-Tek, USA). The in vivo efficacy of the compounds against T. gondii was evaluated via quantitative real-time PCR with DNA from the brain, liver, and spleen. The numbers of parasites in the tissue samples were determined using standard curves constructed using known numbers of tachyzoites, as previously described.

[7] = tested on: T. gondii PRU strain; assay: In vitro activity against PRU strain tachyzoites (PV counts, plaques); type: cell-based, Toxoplasma gondii; details: NBZ023 2.85 or 30 μM, NBZ035 1.6 or 30 μM; 24, 48, 72 h
Procedure: Vero cells were infected for 8 h with extracellular type II PRU strain tachyzoites (1.5 × 10^5), which were isolated from a mouse brain, and then the medium containing compounds or 0.1% DMSO (as a control) was added. After 24, 48, and 72 h of incubation, the numbers of PVs were assessed via […] under a 40 × objective lens, and at least 20 random fields per well were counted.

[8] = tested on: T. gondii RH strain tachyzoites; assay: In vitro anti-proliferation assay (qPCR of 529-bp repeat); type: cell-based, Toxoplasma gondii; details: for IC50: Toxoplasma gondii, RH strain in Vero cells, 24 h treatment, qPCR, read-out: IC50, inhibition of T. gondii proliferation
Procedure: The antiproliferative effects of NBZ023 and NBZ035 on T. gondii were determined via qPCR, which was performed by using a QuantStudio 3 Flex real-time PCR system (Life Technologies). Cells were infected with tachyzoites (2 × 10^5 per well) for 6 h, then treated with NBZ023, NBZ035 (0.24‒30 μM) or pyrimethamine (0.4 μM) for 24 h, and washed twice with PBS. Infected or uninfected cells that were cultured with DMEM (1% FBS) were used as the parasite or the host cell control group, respectively. Total genomic DNA from the cell samples was isolated with the DNAiso reagent (Takara), and the levels of the 529-bp repeat sequence of T. gondii were measured via qPCR as before.

[9] = tested on: T. gondii RH tachyzoites; assay: Screening for anti-T. gondii activity in vitro (plaque and qPCR assays); type: cell-based, Toxoplasma gondii; details: 30 μM screening
Procedure: The anti-T. gondii activity of compounds NBZ001‒037 was examined via RT-PCR. Confluent Vero cells in 6-well plates were infected with 2 × 10^5 T. gondii RH tachyzoites per well, incubated for 6 h, and then washed twice with PBS to remove extracellular tachyzoites. The cell monolayers were incubated with DMEM (1% FBS) containing various concentrations of NBZ001‒037 for 24 h. Total genomic DNA from each sample was isolated with the DNAiso reagent (Takara), and the levels of the 529-bp repeat element of T. gondii were measured by qPCR. A plaque assay was used to evaluate the activity of the compounds. The detailed experimental procedures were described in previous studies.

SMILES	ultrastructural change of T. gondii tachyzoites (TEM) ([1]; 24 h of treatment)	ultrastructural change of T. gondii tachyzoites (TEM) ([1]; incubation 8 h)	IC50 [2] [µM]	number of parasitophorous vacuoles (PVs) invaded by RH-GFP tachyzoites [2]	inhibition of the formation of T. gondii cysts compared with control [3]	Cytotoxicity [4] [µM]	inhibition at 30 µM [4] [%]	CC50 at 24 h [5] [µM]	reduction of mean T. gondii burden in the liver [6] [%]	reduction of mean numbers of T. gondii parasites in the brain [6] [%]	reduction of mean numbers of T. gondii parasites in the spleen [6] [%]	proliferation ability of the T. gondii PRU strain (parasites per PV, number of PVs) [7]	IC50 [8] [µM]	increase in potency compared with nonaromatic heterocycles (NBZ016–018) [9]	selectivity index (SI) ([8]; CC50 host cells / IC50 proliferation)
O=C(Nc1ccccc1)c1ccc2[nH]c3c4[n+](ccc3c2c1)-c1ccccc1C4=O [NBZ035]	the parasite ruptured, and severe cavitation occurred	cracks in the somatic cytoplasm of the parasite	1.13	significantly reduced	twofold	> 30.00	3.27	80.6	88.52	93.21	89.40	significantly (P ≤ 0.05) inhibited	1.6		
O=C(Nc1ccccc1)c1ccc2[nH]c3c(C(=O)c4cccc(Br)c4)nccc3c2c1 [NBZ023]	the parasite ruptured, and severe cavitation occurred	cracks in the somatic cytoplasm of the parasite	4.72	significantly reduced	twofold	> 30.00	4.56	883	56.42	70.72	68.90	significantly (P ≤ 0.05) inhibited	2.85	2- to 3 fold	309.8
